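Exposure lasted 48 hours, with cells grown in 96-well plates and compounds tested at five concentrations. GI50 is the concentration that inhibits growth by half.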 Calls of active or inactive are those of the source. Cut-off read from the data, not from the text of the source: active = GI50 up to about 1.1 µM and inactive = higher.
Experiments:
Assay in all cases: NCI anticancer screen, dose series, 48 h
LOX IMVI = test system: LOX IMVI
A498 = test system: A498
MDA-MB-231 = test system: MDA-MB-231
NCI-H460 = test system: NCI-H460
MDA-MB-435 = test system: MDA-MB-435
HT-29 = test system: HT-29
HCT-116 = test system: HCT-116
A549 = test system: A549
OVCAR-4 = test system: OVCAR-4
ACHN = test system: ACHN
TK-10 = test system: TK-10
SNB-75 = test system: SNB-75
NCI-H522 = test system: NCI-H522
SK-MEL-2 = test system: SK-MEL-2
Malme-3M = test system: Malme-3M
BT-549 = test system: BT-549
MDA-N = test system: MDA-N
MCF7 = test system: MCF7
OVCAR-8 = test system: OVCAR-8
T47D = test system: T47D
OVCAR-3 = test system: OVCAR-3
EKVX = test system: EKVX
HL-60 = test system: HL-60
SK-MEL-28 = test system: SK-MEL-28
COLO 205 = test system: COLO 205
CAKI-1 = test system: CAKI-1
SF-295 = test system: SF-295
RPMI-8226 = test system: RPMI-8226
HOP-92 = test system: HOP-92
MOLT-4 = test system: MOLT-4
NCI-H23 = test system: NCI-H23
KM12 = test system: KM12
SF-539 = test system: SF-539
UACC-257 = test system: UACC-257
CCRF-CEM = test system: CCRF-CEM
Hs-578T = test system: Hs-578T
SW-620 = test system: SW-620
SF-268 = test system: SF-268
SR = test system: SR
NCI-H226 = test system: NCI-H226
IGROV-1 = test system: IGROV-1
OVCAR-5 = test system: OVCAR-5
DU-145 = test system: DU-145
PC-3 = test system: PC-3
HCT-15 = test system: HCT-15
786-0 = test system: 786-0
HOP-62 = test system: HOP-62
RXF 393 = test system: RXF 393
UO-31 = test system: UO-31
SNB-19 = test system: SNB-19
NCI/ADR-RES = test system: NCI/ADR-RES
UACC-62 = test system: UACC-62
SK-OV-3 = test system: SK-OV-3
M14 = test system: M14
U-251 = test system: U-251
K562 = test system: K562
SK-MEL-5 = test system: SK-MEL-5
SN12C = test system: SN12C
HCC 2998 = test system: HCC 2998

CC(=O)Nc1ccc(Cc2ccc3nc(O)cc(C)c3c2)cc1
GI50 (LOX IMVI): > 100 µM (inactive) | GI50 (A498): > 100 µM (inactive) | GI50 (MDA-MB-231): 28.8 µM (inactive) | GI50 (NCI-H460): 62.1 µM (inactive) | GI50 (MDA-MB-435): > 100 µM (inactive) | GI50 (HT-29): 50.6 µM (inactive) | GI50 (HCT-116): 83.8 µM (inactive) | GI50 (A549): > 100 µM (inactive) | GI50 (OVCAR-4): > 100 µM (inactive) | GI50 (ACHN): 50.8 µM (inactive) | GI50 (TK-10): 40.5 µM (inactive) | GI50 (SNB-75): 10.3 µM (inactive) | GI50 (NCI-H522): 48.8 µM (inactive) | GI50 (SK-MEL-2): 22.2 µM (inactive) | GI50 (Malme-3M): 87.7 µM (inactive) | GI50 (BT-549): > 100 µM (inactive) | GI50 (MDA-N): > 100 µM (inactive) | GI50 (MCF7): 81.5 µM (inactive) | GI50 (OVCAR-8): > 100 µM (inactive) | GI50 (T47D): 55.3 µM (inactive) | GI50 (OVCAR-3): > 100 µM (inactive) | GI50 (EKVX): 65.3 µM (inactive) | GI50 (HL-60): > 100 µM (inactive) | GI50 (SK-MEL-28): > 100 µM (inactive) | GI50 (COLO 205): 57.4 µM (inactive) | GI50 (CAKI-1): 63.5 µM (inactive) | GI50 (SF-295): 29.9 µM (inactive) | GI50 (RPMI-8226): 17.2 µM (inactive) | GI50 (HOP-92): > 100 µM (inactive) | GI50 (MOLT-4): > 100 µM (inactive) | GI50 (NCI-H23): > 100 µM (inactive) | GI50 (KM12): > 100 µM (inactive) | GI50 (SF-539): 68.7 µM (inactive) | GI50 (UACC-257): 67 µM (inactive) | GI50 (CCRF-CEM): > 100 µM (inactive) | GI50 (Hs-578T): 85.1 µM (inactive) | GI50 (SW-620): > 100 µM (inactive) | GI50 (SF-268): > 100 µM (inactive) | GI50 (SR): > 100 µM (inactive) | GI50 (NCI-H226): > 100 µM (inactive) | GI50 (IGROV-1): 61.2 µM (inactive) | GI50 (OVCAR-5): > 100 µM (inactive) | GI50 (DU-145): 32.5 µM (inactive) | GI50 (PC-3): 50.5 µM (inactive) | GI50 (HCT-15): > 100 µM | GI50 (786-0): 24.3 µM (inactive) | GI50 (HOP-62): 33.8 µM (inactive) | GI50 (RXF 393): 35.5 µM (inactive) | GI50 (UO-31): > 100 µM (inactive) | GI50 (SNB-19): 63.5 µM (inactive) | GI50 (NCI/ADR-RES): > 100 µM (inactive) | GI50 (UACC-62): 31 µM (inactive) | GI50 (SK-OV-3): 87.3 µM (inactive) | GI50 (M14): > 100 µM (inactive) | GI50 (U-251): 30.1 µM (inactive) | GI50 (K562): > 100 µM (inactive) | GI50 (SK-MEL-5): > 100 µM (inactive) | GI50 (SN12C): 64.6 µM (inactive)

COc1cc(OC)c(OC)cc1/C=C/c1cnnc2ccccc12
GI50 (LOX IMVI): 6.9 µM (inactive) | GI50 (A498): > 10 µM (inactive) | GI50 (MDA-MB-231): > 10 µM (inactive) | GI50 (NCI-H460): > 10 µM (inactive) | GI50 (MDA-MB-435): 1.84 µM (inactive) | GI50 (HT-29): > 10 µM (inactive) | GI50 (HCT-116): > 10 µM (inactive) | GI50 (A549): > 10 µM (inactive) | GI50 (OVCAR-4): > 10 µM (inactive) | GI50 (ACHN): > 10 µM (inactive) | GI50 (TK-10): > 10 µM (inactive) | GI50 (SNB-75): 2.85 µM (inactive) | GI50 (NCI-H522): > 10 µM (inactive) | GI50 (SK-MEL-2): > 10 µM (inactive) | GI50 (Malme-3M): > 10 µM (inactive) | GI50 (BT-549): > 10 µM (inactive) | GI50 (MDA-N): 4.05 µM (inactive) | GI50 (MCF7): 1.68 µM (inactive) | GI50 (OVCAR-8): > 10 µM (inactive) | GI50 (T47D): > 10 µM (inactive) | GI50 (OVCAR-3): > 10 µM (inactive) | GI50 (EKVX): > 10 µM (inactive) | GI50 (HL-60): > 10 µM (inactive) | GI50 (SK-MEL-28): > 10 µM (inactive) | GI50 (COLO 205): > 10 µM (inactive) | GI50 (CAKI-1): > 10 µM (inactive) | GI50 (SF-295): > 10 µM (inactive) | GI50 (RPMI-8226): > 10 µM (inactive) | GI50 (HOP-92): > 10 µM (inactive) | GI50 (MOLT-4): > 10 µM (inactive) | GI50 (NCI-H23): > 10 µM (inactive) | GI50 (KM12): > 10 µM (inactive) | GI50 (HCC 2998): > 10 µM (inactive) | GI50 (SF-539): > 10 µM (inactive) | GI50 (UACC-257): > 10 µM (inactive) | GI50 (CCRF-CEM): > 10 µM (inactive) | GI50 (Hs-578T): > 10 µM (inactive) | GI50 (SW-620): > 10 µM (inactive) | GI50 (SF-268): > 10 µM (inactive) | GI50 (NCI-H226): > 10 µM (inactive) | GI50 (IGROV-1): > 10 µM (inactive) | GI50 (OVCAR-5): > 10 µM (inactive) | GI50 (DU-145): > 10 µM (inactive) | GI50 (PC-3): 4.33 µM (inactive) | GI50 (HCT-15): > 10 µM | GI50 (786-0): > 10 µM (inactive) | GI50 (HOP-62): > 10 µM (inactive) | GI50 (RXF 393): > 10 µM (inactive) | GI50 (UO-31): > 10 µM (inactive) | GI50 (SNB-19): > 10 µM (inactive) | GI50 (NCI/ADR-RES): > 10 µM (inactive) | GI50 (UACC-62): > 10 µM (inactive) | GI50 (SK-OV-3): > 10 µM (inactive) | GI50 (M14): > 10 µM (inactive) | GI50 (U-251): > 10 µM (inactive) | GI50 (K562): 7.85 µM (inactive) | GI50 (SK-MEL-5): > 10 µM (inactive) | GI50 (SN12C): > 10 µM (inactive)

CC(=O)Nc1ccc2c(c1)nc1c3ccccc3ccn21
GI50 (LOX IMVI): > 100 µM (inactive) | GI50 (A498): > 100 µM (inactive) | GI50 (MDA-MB-231): > 100 µM (inactive) | GI50 (NCI-H460): > 100 µM (inactive) | GI50 (MDA-MB-435): > 100 µM (inactive) | GI50 (HT-29): > 100 µM (inactive) | GI50 (HCT-116): 55.6 µM (inactive) | GI50 (A549): > 100 µM (inactive) | GI50 (OVCAR-4): > 100 µM (inactive) | GI50 (ACHN): > 100 µM (inactive) | GI50 (TK-10): > 100 µM (inactive) | GI50 (SNB-75): 71.9 µM (inactive) | GI50 (NCI-H522): > 100 µM (inactive) | GI50 (SK-MEL-2): > 100 µM (inactive) | GI50 (Malme-3M): > 100 µM (inactive) | GI50 (BT-549): > 100 µM (inactive) | GI50 (MDA-N): > 100 µM (inactive) | GI50 (MCF7): > 100 µM (inactive) | GI50 (OVCAR-8): > 100 µM (inactive) | GI50 (T47D): > 100 µM (inactive) | GI50 (EKVX): > 100 µM (inactive) | GI50 (HL-60): > 100 µM (inactive) | GI50 (SK-MEL-28): > 100 µM (inactive) | GI50 (COLO 205): > 100 µM (inactive) | GI50 (CAKI-1): 96.4 µM (inactive) | GI50 (SF-295): 85.9 µM (inactive) | GI50 (HOP-92): > 100 µM (inactive) | GI50 (MOLT-4): > 100 µM (inactive) | GI50 (NCI-H23): > 100 µM (inactive) | GI50 (KM12): 81.1 µM (inactive) | GI50 (SF-539): > 100 µM (inactive) | GI50 (UACC-257): > 100 µM (inactive) | GI50 (CCRF-CEM): 27.8 µM (inactive) | GI50 (Hs-578T): > 100 µM (inactive) | GI50 (SW-620): > 100 µM (inactive) | GI50 (SF-268): > 100 µM (inactive) | GI50 (SR): > 100 µM (inactive) | GI50 (NCI-H226): > 100 µM (inactive) | GI50 (IGROV-1): > 100 µM (inactive) | GI50 (OVCAR-5): > 100 µM (inactive) | GI50 (DU-145): > 100 µM (inactive) | GI50 (PC-3): > 100 µM (inactive) | GI50 (HCT-15): > 100 µM | GI50 (786-0): > 100 µM (inactive) | GI50 (HOP-62): 50.6 µM (inactive) | GI50 (RXF 393): 99.1 µM (inactive) | GI50 (UO-31): 90.4 µM (inactive) | GI50 (SNB-19): > 100 µM (inactive) | GI50 (NCI/ADR-RES): > 100 µM (inactive) | GI50 (UACC-62): > 100 µM (inactive) | GI50 (SK-OV-3): > 100 µM (inactive) | GI50 (M14): > 100 µM (inactive) | GI50 (U-251): > 100 µM (inactive) | GI50 (K562): 56.1 µM (inactive) | GI50 (SK-MEL-5): > 100 µM (inactive) | GI50 (SN12C): > 100 µM (inactive)

From ChEMBL document CHEMBL1201862, “PubChem BioAssay data set” (2004)
